# Measured values from patent US20180265707A1, “DICHROIC DYE COMPOUND, DICHROIC DYE COMPOSITION, LIGHT-ABSORBING ANISOTROPIC FILM, POLARIZING ELEMENT, AND IMAGE DISPLAY DEVICE” (FUJIFILM Corporation, priority 2015, published 2018).
# Test: Solubility in cyclopentanone
# Type: physicochemical
# Conditions: solvent cyclopentanone
# Procedure: For Compounds (1) to (8) thus synthesized, solubility in cyclopentanone was measured.
row,Compound,Solubility in cyclopentanone [% by mass]
1,CCCCC(CC)C(=O)OCCc1ccc(/N=N/c2cc3sc(/N=N/c4ccc(N(CC)CC)cc4)nc3s2)cc1 (centres unmarked) [Compound (3)],6.0
2,CCN(CC)c1ccc(/N=N/c2nc3sc(/N=N/c4ccc(CCOC(=O)CCC(=O)OCCC(C)CCCC(C)C)cc4)cc3s2)cc1 (centres unmarked) [Compound (4)],5.4
3,CCN(CC)c1ccc(/N=N/c2nc3sc(/N=N/c4ccc(CCC(=O)OCCC(C)CCCC(C)C)cc4)cc3s2)cc1 (centres unmarked) [Compound (2)],4.5
4,CCCCOC(=O)CCC(=O)OCCc1ccc(/N=N/c2cc3sc(/N=N/c4ccc(N(CC)CC)cc4)nc3s2)cc1 [Compound (1)],1.6

# Results, then the compound that gave them:
row,Solubility in cyclopentanone [% by mass],Compound
1,0.19,"CCCOC(=O)c1ccc(/N=N/c2cc3sc(/N=N/c4ccc(N(CC)CC)cc4)nc3s2)cc1 [Compound (7), reference compound]"
2,0.50,"CCCCCCCCCC(=O)OCCc1ccc(/N=N/c2cc3sc(/N=N/c4ccc(N(CC)CC)cc4)nc3s2)cc1 [Compound (8), reference compound]"
3,1.2,CCCCCC(=O)OCCCCOC(=O)c1ccc(/N=N/c2cc3sc(/N=N/c4ccc(N(CC)CC)cc4)nc3s2)cc1 [Compound (5)]
4,0.59,"CCCCCCCCCCCCc1ccc(/N=N/c2cc3sc(/N=N/c4ccc(N(CC)CC)cc4)nc3s2)cc1 [Compound (6), reference compound]"
